Here are results for twelve compounds from ChEMBL document CHEMBL3576778, “Structure-Activity Relationship Studies of a Series of Semisynthetic Lipopeptides Leading to the Discovery of Surotomycin, a Novel Cyclic Lipopeptide Being Developed for the Treatment of Clostridium difficile-Associated Diarrhea” (J Med Chem, 2015).

Type in all cases: functional
The subject of assay [1] is Clostridioides difficile. In words: Antimicrobial activity against daptomycin-resistant Clostridium difficile NAP1 incubated anaerobically at 37 degC for 48 hrs by agar dilution method. Particulars: NAP1, 48 h.
In assay [2] the test system is Staphylococcus aureus. The assay can be described thus: Antimicrobial activity against daptomycin-susceptible Staphylococcus aureus ATCC 29213 incubated anaerobically at 37 degC for 48 hrs by agar dilution method. Conditions: ATCC 29213, 48 h.
For assay [3], the system named is Enterococcus faecalis. The assay can be described thus: Antimicrobial activity against daptomycin-resistant Enterococcus faecalis ATCC 49452 incubated anaerobically at 37 degC for 48 hrs by agar dilution method. Conditions: ATCC 49452, 48 h.
The test system of assay [4] is Enterococcus faecium. In words: Antimicrobial activity against daptomycin-resistant Enterococcus faecium ATCC 6569 incubated anaerobically at 37 degC for 48 hrs by agar dilution method. Conditions: ATCC 6569, 48 h.
The test system of assay [5] is Clostridioides difficile. The assay can be described thus: Antimicrobial activity against daptomycin-resistant Clostridium difficile ATCC 43596 infected in Syrian golden hamster model of Clostridium difficile-associated diarrhea assessed as protection against microbial infection by measuring survival at day 25 to 26 at 0.5 mg/kg treated once daily for 5 consecutive days starting 4 hrs after spore inoculation.

Structures are written as SMILES. Converted amounts (≈) assume the structure as drawn. A value given as a limit tells only on which side of the number the result lay.

On to `CCCCCCCc1ccc(C(=O)N[C@@H](Cc2c[nH]c3ccccc23)C(=O)N[C@@H](CC(N)=O)C(=O)N[C@@H](CC(=O)O)C(=O)N[C@@H]2C(=O)NCC(=O)N[C@@H](CCCN)C(=O)N[C@H](CC(=O)O)C(=O)N[C@H](C)C(=O)N[C@@H](CC(=O)O)C(=O)NCC(=O)N[C@H](CO)C(=O)N[C@@H]([C@@H](C)CC(=O)O)C(=O)N[C@@H](CC(=O)c3ccccc3N)C(=O)O[C@@H]2C)cc1`, for which the MIC was 0.5 µg/mL (≈ 0.3 µM) in assay [1], 0.25 µg/mL (≈ 0.15 µM) in assay [2], 8 µg/mL (≈ 4.79 µM) in assay [3] and 4 µg/mL (≈ 2.4 µM) in assay [4]. In addition, the survival at 0.5 mg/kg in assay [5] worked out at 80%.

Regarding `CCCCC[C@H]1CC[C@H](C(=O)N[C@@H](Cc2c[nH]c3ccccc23)C(=O)N[C@@H](CC(N)=O)C(=O)N[C@@H](CC(=O)O)C(=O)N[C@@H]2C(=O)NCC(=O)N[C@@H](CCCN)C(=O)N[C@H](CC(=O)O)C(=O)N[C@H](C)C(=O)N[C@@H](CC(=O)O)C(=O)NCC(=O)N[C@H](CO)C(=O)N[C@@H]([C@@H](C)CC(=O)O)C(=O)N[C@@H](CC(=O)c3ccccc3N)C(=O)O[C@@H]2C)CC1`, the MIC in assay [1] is 0.5 µg/mL (≈ 0.304 µM); in assay [2] it was 0.5 µg/mL (≈ 0.304 µM); in assay [3] it was above 32 µg/mL; in assay [4], 16 µg/mL (≈ 9.72 µM). Also, in assay [5], the survival at 0.5 mg/kg was found to be 60%.

As for `CCCCCC12CCC(C(=O)N[C@@H](Cc3c[nH]c4ccccc34)C(=O)N[C@@H](CC(N)=O)C(=O)N[C@@H](CC(=O)O)C(=O)N[C@@H]3C(=O)NCC(=O)N[C@@H](CCCN)C(=O)N[C@H](CC(=O)O)C(=O)N[C@H](C)C(=O)N[C@@H](CC(=O)O)C(=O)NCC(=O)N[C@H](CO)C(=O)N[C@@H]([C@@H](C)CC(=O)O)C(=O)N[C@@H](CC(=O)c4ccccc4N)C(=O)O[C@@H]3C)(CC1)CC2`, the MIC was determined as 1 µg/mL (≈ 0.598 µM) in assay [1], 0.25 µg/mL (≈ 0.149 µM) in assay [2], 32 µg/mL (≈ 19.1 µM) in assay [3] and 16 µg/mL (≈ 9.56 µM) in assay [4]. Further, in assay [5], the survival at 0.5 mg/kg turned out to be 60%.

Regarding `CCCCCCCc1csc(C(=O)N[C@@H](Cc2c[nH]c3ccccc23)C(=O)N[C@@H](CC(N)=O)C(=O)N[C@@H](CC(=O)O)C(=O)N[C@@H]2C(=O)NCC(=O)N[C@@H](CCCN)C(=O)N[C@H](CC(=O)O)C(=O)N[C@H](C)C(=O)N[C@@H](CC(=O)O)C(=O)NCC(=O)N[C@H](CO)C(=O)N[C@@H]([C@@H](C)CC(=O)O)C(=O)N[C@@H](CC(=O)c3ccccc3N)C(=O)O[C@@H]2C)c1`, the MIC in assay [1] is 2 µg/mL (≈ 1.19 µM); in assay [2], 0.125 µg/mL (≈ 0.0746 µM); in assay [3], 32 µg/mL (≈ 19.1 µM); in assay [4] it was 16 µg/mL (≈ 9.55 µM). Further, in assay [5], the survival at 0.5 mg/kg was 60%.

With `CCCCCCCCc1ccc(C(=O)N[C@@H](Cc2c[nH]c3ccccc23)C(=O)N[C@@H](CC(N)=O)C(=O)N[C@@H](CC(=O)O)C(=O)N[C@@H]2C(=O)NCC(=O)N[C@@H](CCCN)C(=O)N[C@H](CC(=O)O)C(=O)N[C@H](C)C(=O)N[C@@H](CC(=O)O)C(=O)NCC(=O)N[C@H](CO)C(=O)N[C@@H]([C@@H](C)CC(=O)O)C(=O)N[C@@H](CC(=O)c3ccccc3N)C(=O)O[C@@H]2C)cc1`, the MIC in assay [1] was 1 µg/mL (≈ 0.594 µM); in assay [2], 0.5 µg/mL (≈ 0.297 µM); in assay [3] it was 8 µg/mL (≈ 4.75 µM); in assay [4], 4 µg/mL (≈ 2.38 µM). Besides, the survival at 0.5 mg/kg in assay [5] stood at 20%.

For `C[C@H]1NC(=O)[C@@H](CC(=O)O)NC(=O)[C@H](CCCN)NC(=O)CNC(=O)[C@@H](NC(=O)[C@H](CC(=O)O)NC(=O)[C@H](CC(N)=O)NC(=O)[C@H](Cc2c[nH]c3ccccc23)NC(=O)C2CCCCCCCCCCC2)[C@@H](C)OC(=O)[C@H](CC(=O)c2ccccc2N)NC(=O)[C@H]([C@@H](C)CC(=O)O)NC(=O)[C@@H](CO)NC(=O)CNC(=O)[C@H](CC(=O)O)NC1=O`, the MIC in assay [1] was 4 µg/mL (≈ 2.41 µM); in assay [2] it was 1 µg/mL (≈ 0.602 µM); in assay [3], above 32 µg/mL; in assay [4], 32 µg/mL (≈ 19.3 µM).

As to `C[C@H]1NC(=O)[C@@H](CC(=O)O)NC(=O)[C@H](CCCN)NC(=O)CNC(=O)[C@@H](NC(=O)[C@H](CC(=O)O)NC(=O)[C@H](CC(N)=O)NC(=O)[C@H](Cc2c[nH]c3ccccc23)NC(=O)c2ccc(-c3ccc(Cl)cc3)cc2)[C@@H](C)OC(=O)[C@H](CC(=O)c2ccccc2N)NC(=O)[C@H]([C@@H](C)CC(=O)O)NC(=O)[C@@H](CO)NC(=O)CNC(=O)[C@H](CC(=O)O)NC1=O`, the MIC in assay [1] is 16 µg/mL (≈ 9.52 µM); in assay [2] it was 4 µg/mL (≈ 2.38 µM); in assay [3] it was above 32 µg/mL; in assay [4] it was above 32 µg/mL.

Turning to `CCCCCCCCCCCCC(=O)N[C@@H](Cc1c[nH]c2ccccc12)C(=O)N[C@@H](CC(N)=O)C(=O)N[C@@H](CC(=O)O)C(=O)N[C@@H]1C(=O)NCC(=O)N[C@@H](CCCN)C(=O)NC(CC(=O)O)C(=O)N[C@H](C)C(=O)N[C@@H](CC(=O)O)C(=O)NCC(=O)N[C@H](CO)C(=O)N[C@@H]([C@@H](C)CC(=O)O)C(=O)N[C@@H](CC(=O)c2ccccc2N)C(=O)O[C@@H]1C` (single isomer, unassigned), the MIC is 8 µg/mL (≈ 4.81 µM) in assay [1], 0.5 µg/mL (≈ 0.301 µM) in assay [2], 8 µg/mL (≈ 4.81 µM) in assay [3] and 8 µg/mL (≈ 4.81 µM) in assay [4].

As to `C[C@H]1NC(=O)C(CC(=O)O)NC(=O)[C@H](CCCN)NC(=O)CNC(=O)[C@@H](NC(=O)[C@H](CC(=O)O)NC(=O)[C@H](CC(N)=O)NC(=O)[C@H](Cc2c[nH]c3ccccc23)NC(=O)CCCCCC2CCCCC2)[C@@H](C)OC(=O)[C@H](CC(=O)c2ccccc2N)NC(=O)[C@H]([C@@H](C)CC(=O)O)NC(=O)[C@@H](CO)NC(=O)CNC(=O)[C@H](CC(=O)O)NC1=O` (single isomer, unassigned), the MIC in assay [1] is 2 µg/mL (≈ 1.21 µM); in assay [2] it was 1 µg/mL (≈ 0.607 µM); in assay [3] it was above 32 µg/mL; in assay [4], 16 µg/mL (≈ 9.72 µM).

`CCCCCCSc1ccc(-c2csc(C(=O)N[C@@H](Cc3c[nH]c4ccccc34)C(=O)N[C@@H](CC(N)=O)C(=O)N[C@@H](CC(=O)O)C(=O)N[C@@H]3C(=O)NCC(=O)N[C@@H](CCCN)C(=O)N[C@H](CC(=O)O)C(=O)N[C@H](C)C(=O)N[C@@H](CC(=O)O)C(=O)NCC(=O)N[C@H](CO)C(=O)N[C@@H]([C@@H](C)CC(=O)O)C(=O)N[C@@H](CC(=O)c4ccccc4N)C(=O)O[C@@H]3C)c2)cc1`: the MIC in assay [1] is 8 µg/mL (≈ 4.52 µM); in assay [2], 8 µg/mL (≈ 4.52 µM); in assay [3], above 32 µg/mL; in assay [4], 16 µg/mL (≈ 9.05 µM).

As for `C[C@H]1NC(=O)C(CC(=O)O)NC(=O)[C@H](CCCN)NC(=O)CNC(=O)[C@@H](NC(=O)[C@H](CC(=O)O)NC(=O)[C@H](CC(N)=O)NC(=O)[C@H](Cc2c[nH]c3ccccc23)NC(=O)CCCCCCc2ccccc2)[C@@H](C)OC(=O)[C@H](CC(=O)c2ccccc2N)NC(=O)[C@H]([C@@H](C)CC(=O)O)NC(=O)[C@@H](CO)NC(=O)CNC(=O)[C@H](CC(=O)O)NC1=O` (single isomer, unassigned), the MIC in assay [1] was 8 µg/mL (≈ 4.83 µM); in assay [2], 16 µg/mL (≈ 9.67 µM); in assay [3], above 32 µg/mL; in assay [4] it was above 32 µg/mL.

In the case of `CCCCCCCOc1ccc(-c2ccc(C(=O)N[C@@H](Cc3c[nH]c4ccccc34)C(=O)N[C@@H](CC(N)=O)C(=O)N[C@@H](CC(=O)O)C(=O)N[C@@H]3C(=O)NCC(=O)N[C@@H](CCCN)C(=O)N[C@H](CC(=O)O)C(=O)N[C@H](C)C(=O)N[C@@H](CC(=O)O)C(=O)NCC(=O)N[C@H](CO)C(=O)N[C@@H]([C@@H](C)CC(=O)O)C(=O)N[C@@H](CC(=O)c4ccccc4N)C(=O)O[C@@H]3C)cc2)cc1`, the MIC came out at 2 µg/mL (≈ 1.14 µM) in assay [1], 0.25 µg/mL (≈ 0.142 µM) in assay [2], 4 µg/mL (≈ 2.27 µM) in assay [3] and 1 µg/mL (≈ 0.568 µM) in assay [4].
